The values below come from article PMC3323305 (2011).

The assay has as its target 18-kDa Translocator Protein (TSPO) (Homo sapiens, UniProt P30536, T147A). Briefly: radioligand competition against [3H]PK11195 in human platelet membranes. The format is binding. (Displacement assays read how much labelled ligand stays bound in the presence of the test substance.)

As usually defined, the Ki is the equilibrium dissociation constant of an inhibitor or competing ligand from its target.

Structures are written as SMILES.

18-kDa Translocator Protein (TSPO), sequence (P30536 2-169 T147A): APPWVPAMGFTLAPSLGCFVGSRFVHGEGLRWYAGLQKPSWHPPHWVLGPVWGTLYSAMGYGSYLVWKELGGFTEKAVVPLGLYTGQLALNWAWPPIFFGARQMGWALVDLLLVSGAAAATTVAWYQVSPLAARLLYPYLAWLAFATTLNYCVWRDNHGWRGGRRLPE

The molecule `COc1ccccc1CN(C(C)=O)c1cnccc1Oc1ccccc1` [PBR28] had a Ki of 2.17 ± 0.17 nM.
